Assay results published in US7566712B2, “Biaryl piperazinyl-pyridine analogues” (Neurogen Corporation, priority 2003, dated 2009).

Target: T1, human capsaicin receptor (Homo sapiens, UniProt Q8NER1)
T1 construct: pBK-CMV expression construct encoding the full length human capsaicin receptor; expressed in transfected cells
Assay: Calcium mobilization assay, determination of antagonist activity (Example 6)
Format: cell-based
Conditions: Table II; IC50 determined as described in Example 6
Protocol: A cDNA encoding full length human capsaicin receptor (SEQ ID NO: 1, 2 or 3 of U.S. Pat. No. 6,482,611) was subcloned in the plasmid pBK-CMV (Stratagene, La Jolla, Calif.) for recombinant expression in mammalian cells.
Human embryonic kidney (HEK293) cells were transfected with the pBK-CMV expression construct encoding the full length human capsaicin receptor using standard methods. The transfected cells were selected for two weeks in media containing G418 (400 μg/ml) to obtain a pool of stably transfected cells. Independent clones were isolated from this pool by limiting dilution to obtain clonal stable cell lines for use in subsequent experiments.
This Example illustrates representative calcium mobilization assays for use in evaluating test compounds for agonist and antagonist activity.
Cells transfected with expression plasmids (as described in Example 4) and thereby expressing human capsaicin receptor are seeded and grown to 70-90% confluency in FALCON black-walled, clear-bottomed 96-well plates (#3904, BECTON-DICKINSON, Franklin Lakes, N.J.). The culture medium is emptied from the 96 well plates and FLUO-3 AM calcium sensitive dye (Molecular Probes, Eugene, Oreg.) is added to each well (dye solution: 1 mg FLUO-3 AM, 440 μL DMSO and 440 pi 20% pluronic acid in DMSO, diluted 1:250 in Krebs-Ringer HEPES (KRH) buffer (25 mM HEPES, 5 mM KCl, 0.96 mM NaH2PO4, 1 mM MgSO4, 2 mM CaCl2, 5 mM glucose, 1 mM probenecid, pH 7.4), 50 μl diluted solution per well). Plates are covered with aluminum foil and incubated at 37° C. for 1-2 hours in an environment containing 5% CO2. After the incubation, the dye is emptied from the plates, and the cells are washed once with KRH buffer, and resuspended in KRH buffer.
To measure the ability of a test compound to agonize or antagonize a calcium mobilization response in cells expressing capsaicin receptors to capsaicin or other vanilloid agonist, the EC50 of the agonist capsaicin is first determined. An additional 20 μl of KRH buffer and 1 μl DMSO is added to each well of cells, prepared as described above. 100 μl capsaicin in KRH buffer is automatically transferred by the FLIPR instrument to each well. Capsaicin-induced calcium mobilization is monitored using either FLUOROSKAN ASCENT (Labsystems; Franklin, Mass.) or FLIPR (fluorometric imaging plate reader system; Molecular Devices, Sunnyvale, Calif.) instruments. Data obtained between 30 and 60 seconds after agonist application are used to generate an 8-point concentration response curve, with final capsaicin concentrations of 1 nM to 3 μM. KALEIDAGRAPH software (Synergy Software, Reading, Pa.) is used to fit the data to the equation: y=a*(1/(1+(b/x)^c)) to determine the 50% excitatory concentration (EC50) for the response. In this equation, y is the maximum fluorescence signal, x is the concentration of the agonist or antagonist (in this case, capsaicin), a is the Emax, b corresponds to the EC50 value and c is the Hill coefficient. Determination of Agonist Activity
Test compounds are dissolved in DMSO, diluted in 20 μl KRH buffer so that the final concentration of test compounds in the assay well is between 1 μM and 5 μM, and added to cells prepared as described above. The 96 well plates containing prepared cells and test compounds are incubated in the dark, at room temperature for 0.5 to 6 hours. It is important that the incubation not continue beyond 6 hours. Just prior to determining the fluorescence response, 100 pi capsaicin in KRH buffer at twice the EC50 concentration determined as described above is automatically added by the FLIPR instrument to each well of the 96 well plate for a final sample volume of 200 μl and a final capsaicin concentration equal to the EC50. The final concentration of test compounds in the assay wells is between 1 μM and 5 μM. […]

T1 sequence (Q8NER1 whole entry): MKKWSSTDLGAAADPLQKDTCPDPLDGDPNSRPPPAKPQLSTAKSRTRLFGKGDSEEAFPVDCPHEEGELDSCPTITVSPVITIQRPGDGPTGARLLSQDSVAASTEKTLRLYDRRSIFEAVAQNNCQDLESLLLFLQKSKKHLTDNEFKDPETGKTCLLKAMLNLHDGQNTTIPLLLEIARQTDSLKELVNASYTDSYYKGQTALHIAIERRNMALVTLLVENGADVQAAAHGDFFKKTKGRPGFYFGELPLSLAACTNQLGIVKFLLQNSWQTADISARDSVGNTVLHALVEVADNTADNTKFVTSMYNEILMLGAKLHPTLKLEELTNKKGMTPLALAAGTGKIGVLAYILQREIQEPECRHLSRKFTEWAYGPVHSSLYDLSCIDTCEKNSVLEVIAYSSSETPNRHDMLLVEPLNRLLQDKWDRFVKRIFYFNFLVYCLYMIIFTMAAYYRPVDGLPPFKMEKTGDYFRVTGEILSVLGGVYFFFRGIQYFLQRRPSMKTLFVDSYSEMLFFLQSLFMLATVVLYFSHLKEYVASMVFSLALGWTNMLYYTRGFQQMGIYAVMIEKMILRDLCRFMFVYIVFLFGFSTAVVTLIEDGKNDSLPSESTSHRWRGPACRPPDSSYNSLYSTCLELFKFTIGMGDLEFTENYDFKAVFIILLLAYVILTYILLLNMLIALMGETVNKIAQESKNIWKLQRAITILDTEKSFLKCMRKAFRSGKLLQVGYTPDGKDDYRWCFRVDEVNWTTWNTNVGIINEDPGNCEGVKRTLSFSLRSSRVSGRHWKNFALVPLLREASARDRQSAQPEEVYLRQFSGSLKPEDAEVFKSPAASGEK

IC50, ≤ 1 µM:
CC(C)c1cccc(-c2cc(N3CCN(c4ncccc4C(F)(F)F)C[C@H]3C)nc(N3CCOCC3)n2)c1 [Example 501, 4-(4-(3-isopropylphenyl)-6-{(2R)-2-methyl-4-[3-(trifluoromethyl)pyridin-2-yl]piperazin-1-yl}pyrimidin-2-yl)morpholine]
CCCCN1CCN(c2nc(-c3cccc(Cl)c3)nc(N3CCN(c4ncccc4C(F)(F)F)CC3)n2)CC1 [Example 444, 2-(4-butylpiperazin-1-yl)-4-(3-chlorophenyl)-6-{4-[3-(trifluoromethyl)pyridin-2-yl]piperazin-1-yl}-1,3,5-triazine]
COc1ccc(C(C)C)cc1-c1nc(N2CCOCC2)nc(N2CCN(c3ccccn3)CC2)n1 [Example 430, 2-(5-isopropyl-2-methoxyphenyl)-4-morpholin-4-yl-6-(4-pyridin-2-ylpiperazin-1-yl)-1,3,5-triazine]
Cc1cccnc1N1CCN(c2cc(-c3ccc(C)c4ccccc34)nc(N3CCOCC3)n2)[C@H](C)C1 [Example 522, 4-[4-[(2R)-2-methyl-4-(3-methylpyridin-2-yl)piperazin-1-yl]-6-(4-methyl-1-naphthyl)pyrimidin-2-yl]morpholine]

Same assay, conditions: Table II; IC50 determined as described in Example 6 (antagonist activity, calcium mobilization)

IC50, ≤ 1 µM:
C[C@H]1CN(c2ncccc2Cl)CCN1c1cc(-c2ccc(F)c(Cl)c2)nc(N2CCOC[C@@H]2C)n1 [Example 1005, (3S)-4-{4-(3-chloro-4-fluorophenyl)-6-[(2S)-4-(3-chloropyridin-2-yl)-2-methylpiperazin-1-yl]pyrimidin-2-yl}-3-methylmorpholine]
Cc1ccc(-c2cc(N3CCN(c4ncccc4Cl)C[C@H]3C)nc(N3CCOCC3)n2)cc1Cl [Example 998, 4-{4-(3-chloro-4-methylphenyl)-6-[(2R)-4-(3-chloropyridin-2-yl)-2-methylpiperazin-1-yl]pyrimidin-2-yl}morpholine]

Same assay, conditions: Table II; determined as described in Example 6 (antagonist activity); "*" = 1 micromolar or less

IC50, ≤ 1 µM:
CCNC(=O)c1cnc(N2CCN(c3cc(-c4ccc(F)c(Cl)c4)nc(N4CCCC4C)n3)[C@H](C)C2)c(Cl)c1 (stereo partly shown) [Example 933, 5-chloro-6-{4-[6-(3-chloro-4-fluorophenyl)-2-(2-methylpyrrolidin-1-yl)pyrimidin-4-yl]-3-methylpiperazin-1-yl}-N-ethylnicotinamide]
C[C@H]1CN(c2nccnc2Cl)CCN1c1cc(-c2ccc(F)c(F)c2)nc(N2CCOCC2)n1 (stereo in doubt) [Example 939, 4-[4-[4-(3-chloropyrazin-2-yl)-2-methylpiperazin-1-yl]-6-(3,4-difluorophenyl)pyrimidin-2-yl]morpholine]
Cc1cc(-c2cc(N3CCN(c4ncccc4Cl)C[C@H]3C)nc(N3CCC[C@H]3C)n2)ccc1F [Example 924, 4-[(2R)-4-(3-chloropyridin-2-yl)-2-methylpiperazin-1-yl]-6-(4-fluoro-3-methylphenyl)-2-[(2R)-2-methylpyrrolidin-1-yl]pyrimidine]
CCCN1C[C@H]2C[C@@H]1CN2c1nc(-c2ccc(F)c(Cl)c2)cc(N2CCN(c3ncccc3C(F)(F)F)CC2)n1 [Example 777, (1R,4R)-2-(4-(3-chloro-4-fluorophenyl)-6-{4-[3-(trifluoromethyl)pyridin-2-yl]piperazin-1-yl}pyrimidin-2-yl)-5-propyl-2,5-diazabicyclo[2.2.1]heptane]
CC1CCN1c1nc(-c2ccc(F)c(Cl)c2)cc(N2CCN(c3ncccc3Cl)C[C@H]2C)n1 (stereo partly drawn) [Example 780, 4-(3-ohloro-4-fluorophenyi)-6-[(2R)-4-(3-chloropyridin-2-yl)-2-methylpiperazin-1-yl]-2-(2-methylazetidin-1-yl)pyrimidine]
COc1ccc(-c2cc(N3CCN(c4ncccc4Cl)C[C@H]3C)nc(N3CCCC3C)n2)cc1C (stereo partly drawn) [Example 810, 4-[(2R)-4-(3-chloropyridin-2-yl)-2-methylpiperazin-1-yl]-6-(4-methoxy-3-methylphenyl)-2-(2-methylpyrrolidin-1-yl)pyrimidine]
C[C@H]1CN(c2nccnc2Cl)CCN1c1cc(-c2ccc(F)c(F)c2)nc(N2CCCC2)n1 [Example 937, 4-[(2S)-4-(3-chloropyrazin-2-yl)-2-methylpiperazin-1-yl]-6-(3,4-difluorophenyl)-2-pyrrolidin-1-ylpyrimidine]
Cc1cc(-c2cc(Cl)nc(N3CCN(c4ncccc4Cl)C[C@@H]3C)n2)ccc1F (stereo in doubt) [Example 899, 4-chloro-2-[4-(3-chloropyridin-2-yl)-2-methylpiperazin-1-yl]-6-(4-fluoro-3-methylphenyl)pyrimidine]
O=C(O)CCc1ccc(-c2cc(N3CCN(c4ncccc4C(F)(F)F)CC3)nc(N3CCOCC3)n2)cc1 [Example 849, 3-[4-(2-morpholin-4-yl-6-{4-[3-(trifluorormethyl)pyridin-2-yl]piperazin-1-yl}pyrimidin-4-yl)phenyl]propanoic acid]

Same assay, conditions: determined as described in Example 6 (calcium mobilization, antagonist activity); Table II

IC50, ≤ 1 µM:
CCN(CC)c1nc(-c2ccc(F)c(C)c2)cc(N2CCN(c3ncccc3C(F)(F)F)CC2)n1 [Example 594, N,N-diethyl-4-(4-fluoro-3-methylphenyl)-6-{4-[3-(trifluoromethyl)pyridin-2-yl]piperazin-1-yl}pyrimidin-2-amine]
N#Cc1cccnc1N1CCN(c2cc(-c3ccc(F)c(Cl)c3)nc(N3CCOCC3)n2)CC1 [Example 583, 2-{4-[6-(3-chloro-4-fluorophenyl)-2-morpholin-4-ylpyrimidin-4-yl]piperazin-1-yl}nicotinonitrile]
FC(F)(F)c1cccnc1N1CCN(c2cc(-c3cncc(Cl)c3)nc(N3CCOCC3)n2)CC1 [Example 593, 4-(4-(5-chloropyridin-3-yl)-6-{4-[3-(trifluoromethyl)pyridin-2-yl]piperazin-1-yl}pyrimidin-2-yl)morphotine]
C[C@@H]1CN(c2nc(-c3ccc(F)c(Cl)c3)cc(N3CCN(c4ncccc4C(F)(F)F)CC3)n2)[C@@H](C)CN1C [Example 628, 4-(3-chloro-4-fluorophenyl)-6-{4-[3-(trifluoromethyl)pyridin-2-yl]piperazin-1-yl}-2-[(2S,5R)-2,4,5-trimethylpiperazin-1-yl]pyrimidine]
CN(C)C[C@@H]1CCCN1c1nc(-c2ccc(F)c(Cl)c2)cc(N2CCN(c3ncccc3C(F)(F)F)CC2)n1 [Example 712, 1-[(2S)-1-(4-(3-chloro-4-fluorophenyl)-6-{4-[3-(trifluoromethyl)pyridin-2-yl]piperazin-1-yl}pyrimidin-2-yl)pyrrolidin-2-yl]-N,N-dimethylmethanamine]
COC[C@@H]1CCCN1c1nc(-c2ccc(F)c(C)c2)cc(N2CCN(c3ncccc3C(F)(F)F)C[C@H]2C)n1 [Example 760, 4-(4-fluoro-3-methylphenyl)-2-[(2S)-2-(methoxymethyl)pyrrolidin-1-yl]-6-{(2R)-2-methyl-4-[3-(trifluoromethyl)pyridin-2-yl]piperazin-1-yl}pyrimidine]
CC1CCCN1c1nc(-c2ccc(F)c(F)c2)cc(N2CCN(c3ncccc3C(F)(F)F)CC2)n1 (stereo not shown) [Example 704, 4-(3,4-difluorophenyl)-2-(2-methylpyrrolidin-1-yl)-6-{4-[3-(trifluoromethyl)pyridin-2-yl]piperazin-1-yl}pyrimidine]
